Literature values, collected in patent publication US8071619B2, “Injectable liquid formulation of paracetamol” (priority 2003, dated 2011).

Conditions: aqueous solution; K. T. Koshy et al., 1961

- pH at which the rate of degradation of paracetamol is minimal: ~6
Compound: CC(=O)Nc1ccc(O)cc1 [paracetamol, N-(4-hydroxy-phenyl)acetamide]
